Measured values as given in ChEMBL document CHEMBL1142710, “3D-QSAR comparative molecular field analysis on opioid receptor antagonists: pooling data from different studies” (J Med Chem, 2005).

Key:
[1] = target: T1, Kappa-type opioid receptor (Cavia porcellus, UniProt P41144); assay: Binding affinity against Opioid receptor kappa 1 from guinea pig brain membranes using [3H]U-69593
[2] = target: T2, Delta-type opioid receptor (Rattus norvegicus, UniProt P33533); assay: Binding affinity against Opioid receptor delta 1 from rat brain membranes using [3H]DADLE
Mu-type opioid receptor [3] = target: T3, Mu-type opioid receptor (Rattus norvegicus, UniProt P33535); assay: Binding affinity against Opioid receptor mu 1 from rat brain membranes using [3H]DAMGO
[4] = target: T1, Kappa-type opioid receptor; assay: Affinity against opioid receptor kappa 1 in guinea pig brain membranes determined in a competitive binding assay using [3H]U-69593 as competitive ligand (Compound 62); format: cell membranes, Membrane
[5] = target: T2, Delta-type opioid receptor; assay: Affinity against opioid receptor delta 1 in rat brain membranes determined in a competitive binding assay using [3H]DADLE as competitive ligand (Compound 62); format: cell membranes
Mu-type opioid receptor [6] = target: T3, Mu-type opioid receptor; assay: Affinity against opioid receptor mu 1 in rat brain membranes determined in a competitive binding assay using [3H]DAMGO as competitive ligand (Compound 62); format: cell membranes

## CCCCOc1cccc2c1C13CCN(CC4CC4)C(C2)[C@]1(OCCCc1ccccc1)CCC(=O)C3 (stereo not given in full)
[1]
  Ki: 151 nM
[2]
  Ki: 234 nM
Mu-type opioid receptor [3]
  Ki: 14.8 nM

## C=C(C)CN1CCC23c4c5ccc(O)c4O[C@H]2C(=O)C2(CCc4ccccc42)C[C@@]3(O)C1C5 (stereo not given in full)
[1]
  Ki: 1000 nM
[2]
  Ki: 40.7 nM
Mu-type opioid receptor [3]
  Ki: 2000 nM

## CN1CCC23c4c5ccc(O)c4O[C@H]2c2ncc(-c4ccc(Br)cc4)cc2C[C@@]3(O)C1C5 (stereo not given in full)
[1]
  Ki: 437 nM
[2]
  Ki: 3.98 nM
Mu-type opioid receptor [3]
  Ki: 195 nM

## CN1CCC23c4c5ccc(O)c4O[C@H]2c2ncc(-c4ccc(Cl)cc4)cc2C[C@@]3(O)C1C5 (stereo not given in full)
[1]
  Ki: 468 nM
[2]
  Ki: 3.89 nM
Mu-type opioid receptor [3]
  Ki: 229 nM

## CCCCCCOc1cccc2c1C13CCN(CC4CC4)C(C2)[C@]1(OC)CCC(=O)C3 (stereo not given in full)
[1]
  Ki: 437 nM
[2]
  Ki: 1170 nM
Mu-type opioid receptor [3]
  Ki: 44.7 nM

## C=C(C)CN1CCC23c4c5ccc(O)c4O[C@H]2C(=O)/C(=C\c2ccccc2)C[C@@]3(O)C1C5 (stereo not given in full)
[1]
  Ki: 4470 nM
[2]
  Ki: 209 nM
Mu-type opioid receptor [3]
  Ki: 4470 nM

## C=C(N)NCCCC(=O)NC1CC2CC(c3cccc(O)c3)(C1)C(C)CN2CCCc1ccccc1 (stereo not given)
[1]
  Ki: 13.2 nM
[2]
  Ki: 1740 nM
Mu-type opioid receptor [3]
  Ki: 87.1 nM

## C=CCN1CCC23c4c5ccc(O)c4O[C@@]2(C)c2[nH]c4ccccc4c2C[C@@]3(OCC)C1C5 (stereo not given in full)
[1]
  Ki: 759 nM
[2]
  Ki: 10.7 nM
Mu-type opioid receptor [3]
  Ki: 661 nM

## CO[C@@]12CCC(=O)CC13CCN(CC1CC1)C2Cc1cccc(OC/C=C/c2ccccc2)c13 (stereo not given in full)
[1]
  Ki: 363 nM
[2]
  Ki: 832 nM
Mu-type opioid receptor [3]
  Ki: 28.2 nM

## CC1CN(CCCc2ccccc2)C2CC(N)CC1(c1cccc(O)c1)C2 (stereo not given)
[1]
  Ki: 123 nM
[2]
  Ki: 14.8 nM
Mu-type opioid receptor [3]
  Ki: 3.31 nM

## CC1CN(CCCc2ccccc2)C2CC(NC(=O)CCCN(C)C)CC1(c1cccc(O)c1)C2 (stereo not given)
[1]
  Ki: 12 nM
[2]
  Ki: 1450 nM
Mu-type opioid receptor [3]
  Ki: 57.5 nM

## CN1CCC23c4c5ccc(O)c4O[C@H]2c2ncc(-c4ccccc4)cc2C[C@H]3C1C5 (stereo not given in full)
[1]
  Ki: 81.3 nM
[2]
  Ki: 4.9 nM
Mu-type opioid receptor [3]
  Ki: 24 nM

## CN1CCC23c4c5ccc(O)c4O[C@H]2c2ncc(-c4ccc(Cl)c(Cl)c4)cc2C[C@H]3C1C5 (stereo not given in full)
[1]
  Ki: 275 nM
[2]
  Ki: 3.72 nM
Mu-type opioid receptor [3]
  Ki: 93.3 nM

## CN1CCC23c4c5ccc(O)c4O[C@H]2c2ncc(-c4ccc(Cl)cc4)cc2C[C@H]3C1C5 (stereo not given in full)
[1]
  Ki: 77.6 nM
[2]
  Ki: 4.37 nM
Mu-type opioid receptor [3]
  Ki: 148 nM

## C=C(C)CN1CCC23c4c5ccc(O)c4O[C@H]2c2[nH]ncc2C[C@@]3(O)C1C5 (stereo not given in full)
[1]
  Ki: 38 nM
[2]
  Ki: 39.8 nM
Mu-type opioid receptor [3]
  Ki: 141 nM

## C=C(C)CN1CCC23c4c5ccc(O)c4O[C@H]2c2oc4ccccc4c2C[C@@]3(O)C1C5 (stereo not given in full)
[1]
  Ki: 575 nM
[2]
  Ki: 8.13 nM
Mu-type opioid receptor [3]
  Ki: 1290 nM

## Oc1ccc2c3c1O[C@H]1c4nc(-c5ccccc5)ncc4C[C@@]4(O)C(C2)N(CC2CC2)CCC314 (stereo not given in full)
[1]
  Ki: 11 nM
[2]
  Ki: 15.8 nM
Mu-type opioid receptor [3]
  Ki: 21.9 nM

## CN1CCC23c4c5ccc(O)c4O[C@H]2c2ncc(-c4ccc(Cl)cc4Cl)cc2C[C@H]3C1C5 (stereo not given in full)
[1]
  Ki: 407 nM
[2]
  Ki: 1.1 nM
Mu-type opioid receptor [3]
  Ki: 97.7 nM

## Oc1ccc2c3c1O[C@H]1c4ncc(-c5ccc(Cl)cc5)cc4C[C@H]4C(C2)N(CC2CC2)CCC314 (stereo not given in full)
[1]
  Ki: 6.03 nM
[2]
  Ki: 2.57 nM
Mu-type opioid receptor [3]
  Ki: 61.7 nM

## C=CCN1CCC23c4c5ccc(O)c4O[C@H]2c2ncc(-c4ccc(Cl)cc4)cc2C[C@@]3(O)C1C5 (stereo not given in full)
[1]
  Ki: 75.9 nM
[2]
  Ki: 8.13 nM
Mu-type opioid receptor [3]
  Ki: 468 nM

## COc1cccc2c1C13CCN(CC4CC4)C(C2)[C@]1(OCCCc1ccccc1)CCC(=O)C3 (stereo not given in full)
[1]
  Ki: 7.41 nM
[2]
  Ki: 17 nM
Mu-type opioid receptor [3]
  Ki: 0.339 nM

## CO[C@@]12CCC(=O)CC13CCN(CC1CC1)C2Cc1cccc(OCCCc2ccccc2)c13 (stereo not given in full)
[1]
  Ki: 209 nM
[2]
  Ki: 1410 nM
Mu-type opioid receptor [3]
  Ki: 43.7 nM

## O=C1CC[C@@]2(OCCCc3ccccc3)C3Cc4cccc(O)c4C2(CCN3CC2CC2)C1 (stereo not given in full)
[1]
  Ki: 5.89 nM
[2]
  Ki: 5.01 nM
Mu-type opioid receptor [3]
  Ki: 0.398 nM

## Cc1nc(-c2ccccc2)c2c(n1)[C@@H]1Oc3c(O)ccc4c3C13CCN(CC1CC1)C(C4)[C@]3(O)C2 (stereo not given in full)
[1]
  Ki: 562 nM
[2]
  Ki: 324 nM
Mu-type opioid receptor [3]
  Ki: 251 nM

## O=C1CC[C@@]2(OCCCc3ccccc3)C3Cc4cccc5c4C2(CCN3CC2CC2)C1O5 (stereo not given in full)
[1]
  Ki: 22.9 nM
[2]
  Ki: 45.7 nM
Mu-type opioid receptor [3]
  Ki: 0.832 nM

## CO[C@@]12CCC(=O)CC13CCN(CC1CC1)C2Cc1cccc(OCc2ccccc2)c13 (stereo not given in full)
[1]
  Ki: 56.2 nM
[2]
  Ki: 214 nM
Mu-type opioid receptor [3]
  Ki: 11.5 nM

## CN1CCC23c4c5ccc(O)c4O[C@H]2c2ncc(-c4ccc(Br)cc4)cc2C[C@H]3C1C5 (stereo not given in full)
[1]
  Ki: 91.2 nM
[2]
  Ki: 5.01 nM
Mu-type opioid receptor [3]
  Ki: 200 nM

## C=C(N)NCCC(=O)NC1CC2CC(c3cccc(O)c3)(C1)C(C)CN2CCCc1ccccc1 (stereo not given)
[1]
  Ki: 23.4 nM
[2]
  Ki: 56.2 nM
Mu-type opioid receptor [3]
  Ki: 5.25 nM

## CN1CCC23c4c5ccc(O)c4O[C@H]2c2ncc(-c4ccccc4)cc2C[C@@]3(O)C1C5 (stereo not given in full)
[1]
  Ki: 363 nM
[2]
  Ki: 2.88 nM
Mu-type opioid receptor [3]
  Ki: 25.7 nM

## C=C(C)CN1CC[C@]23c4c5ccc(O)c4O[C@@H]2c2[nH]c4ccccc4c2C[C@@]3(O)[C@H]1C5
[1]
  Ki: 3800 nM
[2]
  Ki: 4.68 nM
[4]
  Ki: 3800 nM
[5]
  Ki: 4.68 nM
Mu-type opioid receptor [3]
  Ki: 7940 nM
Mu-type opioid receptor [6]
  Ki: 7940 nM

## CCN1CC[C@]23c4c5ccc(O)c4O[C@@H]2c2[nH]c4ccccc4c2C[C@@]3(O)[C@H]1C5
[1]
  Ki: 3020 nM
[2]
  Ki: 5.01 nM
Mu-type opioid receptor [3]
  Ki: 2510 nM

## CCO[C@@]12Cc3c([nH]c4ccccc34)[C@]3(C)Oc4c(O)ccc5c4C31CCN(CC1CC1)[C@@H]2C5
[1]
  Ki: 58.9 nM
[2]
  Ki: 0.794 nM
Mu-type opioid receptor [3]
  Ki: 38.9 nM

## CCCCOc1cccc2c1[C@]13CCN(CC4CC4)[C@H](C2)[C@]1(OC)CCC(=O)C3
[1]
  Ki: 263 nM
[2]
  Ki: 759 nM
Mu-type opioid receptor [3]
  Ki: 13.8 nM

## COc1cccc2c1[C@]13CCN(CC4CC4)[C@H](C2)[C@]1(OC)CCC(=O)C3 [CYPRODIME]
[1]
  Ki: 110 nM
[2]
  Ki: 417 nM
Mu-type opioid receptor [3]
  Ki: 10.7 nM
